Test results published in PubChem BioAssay (NCI).
“And” between values parts separate entries of the source, which are not always exact repeats. Identical values can stand only once.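 How tested: cells in 96-well plates exposed to compound for 48 hours at five concentrations. GI50 is the concentration that inhibits growth by half. TGI denotes the concentration required for complete inhibition of growth.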

How the values were obtained:
Experiment in all cases: NCI anticancer screen, dose series, 48 h
SF-268 CNS = system: SF-268 CNS
SF-295 CNS = system: SF-295 CNS
ACHN renal = system: ACHN renal
SR leukemia = system: SR leukemia
T-47D breast = system: T-47D breast
EKVX NSCLC = system: EKVX NSCLC
CAKI-1 renal = system: CAKI-1 renal
MCF7 breast = system: MCF7 breast
HS 578T breast = system: HS 578T breast
OVCAR-5 ovarian = system: OVCAR-5 ovarian
SK-MEL-2 melanoma = system: SK-MEL-2 melanoma
IGROV1 ovarian = system: IGROV1 ovarian
RXF 393 renal = system: RXF 393 renal
HT29 colon = system: HT29 colon
NCI-H23 lung = system: NCI-H23 lung

| SMILES | TGI (SF-268 CNS) [µM] | TGI (SF-295 CNS) | TGI (ACHN renal) [µM] | TGI (SR leukemia) | TGI (T-47D breast) [µM] | TGI (EKVX NSCLC) | TGI (CAKI-1 renal) [µM] | TGI (MCF7 breast) [µM] | TGI (HS 578T breast) [µM] | TGI (OVCAR-5 ovarian) [µM] | TGI (SK-MEL-2 melanoma) | TGI (IGROV1 ovarian) [µM] | TGI (RXF 393 renal) [µM] | TGI (HT29 colon) | TGI (NCI-H23 lung) | GI50 (SF-295 CNS) | GI50 (SR leukemia) | GI50 (HS 578T breast) |
| --- | --- | --- | --- | --- | --- | --- | --- | --- | --- | --- | --- | --- | --- | --- | --- | --- | --- | --- |
| O=C(NO)c1cccc(OCc2ccc(Br)cc2)c1 | 38.1 | > 62.1 µM | 12.8 | 37.3 µM | 23.9 | > 79.3 µM | 15 | > 65 | 75.4 | > 70.7 | 50 µM | 35 | 25.6 | 35.8 µM | 17.7 µM | – | – | – |
| c1ccc(N/N=C2\CC(c3ccccc3)Oc3ccccc32)cc1 (configuration not stated) | > 100 | > 100 µM | > 100 | > 100 µM | > 100 | 83.9 µM | > 100 | > 100 | > 100 | > 100 | > 100 µM | > 100 | 75.3 | > 100 µM | > 100 µM | – | – | – |
| O=c1c2cccnc2[nH]c2ccc3scnc3c12 | > 10 | > 10 µM | > 10 | > 10 µM | > 10 | > 10 µM | > 10 | > 10 | > 10 | > 10 | > 10 µM | > 10 | 8.71 | > 10 µM | > 10 µM | – | – | – |
| COc1ccc(-c2oc3c(CC(=O)O)cccc3c(=O)c2OC)cc1 | > 100 | > 100 µM | > 100 | > 100 µM | > 100 | > 100 µM | 42.6 | > 100 | > 100 | > 100 | > 100 µM | > 100 | > 100 | > 100 µM | > 100 µM | – | – | – |
| CC12CN(CC[N+](C)(C)C)CC1(C)C1CCC2O1 (configuration not stated) | > 100 | > 100 µM | > 100 | > 100 µM | > 100 | > 100 µM | > 100 | > 100 | > 100 | > 100 | > 100 µM | > 100 | > 100 | > 100 µM | > 100 µM | – | – | – |
| CC(=O)N1NC(c2ccccc2)=CC(=O)/C1=C/C(=O)c1ccccc1 | 99.3 | > 100 µM | > 100 | 57.8 µM | > 100 | > 100 µM | > 100 | > 100 | > 100 | > 100 | > 100 µM | > 100 | 83 | > 100 µM | > 100 µM | – | – | – |
| CC(C)=CCNc1ncnc2c1ncn2CCC(=O)OC(C)(C)C | > 100 | > 100 µM | > 100 | > 100 µM | > 100 | – | – | > 100 | > 100 | > 100 | – | > 100 | > 100 | > 100 µM | > 100 µM | – | – | – |
| O=C1CC2[C@@H](N3CCCC3)CCC(N1Cc1ccccc1)C2(O)O (some centres not stated) | > 100 | > 100 µM | > 100 | > 100 µM | > 100 | > 100 µM | > 100 | > 100 | > 100 | > 100 | – | > 100 | > 100 | > 100 µM | > 100 µM | – | – | – |
| CC1OC(OC2C(OC(=O)[C@]34CCC(C)(C)C[C@H]3C3=CC[C@@H]5[C@@]6(C)CC[C@H](OC7OC(C(=O)O)C(O)C(O)C7O)C(C)(C)[C@@H]6CC[C@@]5(C)[C@]3(C)CC4)OCC(O)C2O)C(O)C(O)C1OC1OCC(O)C(O)C1O (some centres not stated) | > 100 | > 100 µM and 58.6 µM | – | > 100 µM and 77.1 µM | > 100 | 79.3 µM and 48.4 µM | > 100 | > 100 | > 100 | > 100 | > 100 µM and 63.7 µM | > 100 | > 100 | > 100 µM and 30.1 µM | 42.5 µM and 38.3 µM | 53.5 µM and 24 µM | 46.2 µM and 22.5 µM | > 100 µM and 45.5 µM |
| Cc1ccc2c(c1)C(=O)/C(=C1/CCc3ccc(C)cc31)C2 | > 100 | > 100 µM | > 100 | > 100 µM | > 100 | > 100 µM | – | > 100 | > 100 | > 100 | > 100 µM | > 100 | > 100 | > 100 µM | > 100 µM | – | – | – |
| CCOC(=O)C(NNS(=O)(=O)c1ccc(C)cc1)S(=O)(=O)C(F)(F)C(F)(F)C(F)(F)C(F)(F)F (configuration not stated) | > 100 | > 100 µM | > 100 | > 100 µM | > 100 | > 100 µM | > 100 | > 100 | > 100 | > 100 | > 100 µM | > 100 | – | > 100 µM | > 100 µM | – | – | – |
| O=C(Sc1c(-c2ccccc2)c(=O)n(-c2ccccc2)c(=S)n1-c1ccccc1)c1ccc(Cl)cc1 | > 100 | > 100 µM | > 100 | > 100 µM | > 100 | > 100 µM | > 100 | > 100 | > 100 | > 100 | – | > 100 | > 100 | > 100 µM | > 100 µM | – | – | – |
| COC(=O)/C=C\c1ccc2c(c1)CC1(C2)Cc2ccc(/C=C/C(=O)OC)cc2C1 (configuration not stated) | > 100 | > 31.6 µM | > 31.6 | > 31.6 µM | > 31.6 | > 31.6 µM | > 100 | > 31.6 | > 31.6 | > 31.6 | – | > 31.6 | > 31.6 | > 31.6 µM | > 31.6 µM | – | – | – |
| CCc1cc(-c2nsc(=O)o2)c(S(=O)(=O)CC)s1 | > 100 | > 100 µM | > 100 | > 100 µM | > 100 | > 100 µM | > 100 | > 100 | > 100 | > 100 | > 100 µM | > 100 | – | > 100 µM | > 100 µM | – | – | – |
| CCOC(=O)c1ccc2c(c1)nc1n2C(c2c(F)cccc2F)SC1 (configuration not stated) | > 100 | 73.7 µM | > 100 | > 100 µM | 49.9 | – | > 100 | 74.6 | > 100 | > 100 | 38.4 µM | 42 | > 100 | 56.4 µM | 77.3 µM | – | – | – |
